± gives the uncertainty stated by the source.
What was measured:
Assay in all cases: mass response relative to vehicle control (EMD distance of treated vs reference mass distribution minus control baseline) (% of mean reference cell mass); higher = larger drug-induced change in single-cell mass distribution (stronger response)
MOLM-13 = test system: MOLM-13
Protocol: (§1)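 Cancer cell lines were treated in vitro with drugs at the listed doses (about 24 h; 0.25% DMSO vehicle). Single-cell buoyant mass was measured on suspended microchannel resonator instruments with CNN image curation, 2500 cells per condition. Mass response is the Earth Mover's Distance to vehicle-treated reference cells as % of mean reference mass.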

MM1S ATCC = test system: MM1S ATCC
Protocol: as §1

PC9 = test system: PC9
Protocol: as §1

MDA-MB-361 = test system: MDA-MB-361
Protocol: as §1

CC(C)(C)c1cc(NC(=O)Nc2ccc(-c3cn4c(n3)sc3cc(OCCN5CCOCC5)ccc34)cc2)no1 [Quizartinib]
mass response (MOLM-13; 0.0001 µM): 1.17 ± 1.9
mass response (MOLM-13; 0.001 µM): 16.3 ± 0.82
mass response (MOLM-13; 0.01 µM): 27 ± 0.32
mass response (MOLM-13; 0.1 µM): 25.8 ± 0.77

O=C(/C=C\n1cnc(-c2cc(C(F)(F)F)cc(C(F)(F)F)c2)n1)NNc1cnccn1 [Selinexor]
mass response (MM1S ATCC; 0.005 µM): -0.878 ± 0.35
mass response (MM1S ATCC; 0.05 µM): 4.05 ± 1.2
mass response (MM1S ATCC; 0.5 µM): 12.7 ± 3.1
mass response (MM1S ATCC; 5 µM): 12 ± 3.1

CNC(=O)c1cc(Oc2ccc(NC(=O)Nc3ccc(Cl)c(C(F)(F)F)c3)cc2)ccn1 [Sorafenib]
mass response (MOLM-13; 0.0005 µM): -1.17 ± 0.94
mass response (MOLM-13; 0.005 µM): 10.6 ± 1
mass response (MOLM-13; 0.05 µM): 32 ± 0.86
mass response (MOLM-13; 0.5 µM): 35.2 ± 0.46

CC(=O)O[C@H]1C(=O)[C@@]2(C)[C@H]([C@H](OC(=O)c3ccccc3)[C@]3(O)C[C@H](OC(=O)[C@H](O)[C@@H](NC(=O)c4ccccc4)c4ccccc4)C(C)=C1C3(C)C)[C@]1(OC(C)=O)CO[C@@H]1C[C@@H]2O [Paclitaxel]
mass response (PC9; 0.005 µM): 0.247 ± 0.78
mass response (PC9; 0.025 µM): 26.9 ± 1.3
mass response (PC9; 0.05 µM): 30.7 ± 0.9
mass response (PC9; 0.1 µM): 30.6 ± 1.4

C=CC(=O)Nc1cc(Nc2nccc(-c3cn(C)c4ccccc34)n2)c(OC)cc1N(C)CCN(C)C [Osimertinib]
mass response (PC9; 0.05 µM): 11.8 ± 3
mass response (PC9; 0.5 µM): 9.37 ± 6.4
mass response (PC9; 5 µM): 7.62 ± 2.4
mass response (PC9; 50 µM): 65.8 ± 0.9

Nc1ncn([C@@H]2O[C@H](CO)[C@@H](O)[C@H]2O)c(=O)n1 [5-Azacytidine]
mass response (MOLM-13; 0.1 µM): 1.27 ± 0.26
mass response (MOLM-13; 1 µM): 10.1 ± 1.9
mass response (MOLM-13; 10 µM): 35.2 ± 2.8
mass response (MOLM-13; 0.0001 M): 36.45 ± 0.22

COc1cccc2c1C(=O)c1c(O)c3c(c(O)c1C2=O)C[C@@](O)(C(=O)CO)C[C@@H]3O[C@H]1C[C@H](N)[C@H](O)[C@H](C)O1 [Doxorubicin]
mass response (PC9; 0.15 µM): 33.3 ± 6.1
mass response (PC9; 0.625 µM): 22.9 ± 4.7
mass response (PC9; 2.5 µM): 6.7 ± 3
mass response (PC9; 10 µM): 40.9 ± 3.2

O=C(O)C1(C(=O)O)CCC1.[NH2-].[NH2-].[Pt+2] [Carboplatin]
mass response (PC9; 0.1 µM): -0.849 ± 1.3
mass response (PC9; 1 µM): 1.45 ± 5.4
mass response (PC9; 10 µM): 11.1 ± 3.2
mass response (PC9; 0.0001 M): 25.9 ± 5.4

COc1cccc2c1C(=O)c1c(O)c3c(c(O)c1C2=O)C[C@@](O)(C(=O)CO)C[C@@H]3O[C@H]1C[C@H](N)[C@@H](O)[C@H](C)O1 [Epirubicin]
mass response (MDA-MB-361; 0.15 µM): 10.2 ± 1.1
mass response (MDA-MB-361; 0.625 µM): 10.7 ± 0.92
mass response (MDA-MB-361; 2.5 µM): 8.33 ± 2.5
mass response (MDA-MB-361; 10 µM): 13.1 ± 3.1

C[C@@H]1C[C@H]2[C@@H]3CCC4=CC(=O)C=C[C@]4(C)[C@@]3(F)[C@@H](O)C[C@]2(C)[C@@]1(O)C(=O)CO [Dexamethasone]
mass response (MM1S ATCC; 0.02 µM): 13.7 ± 1.9
mass response (MM1S ATCC; 0.2 µM): 14.8 ± 2.1
mass response (MM1S ATCC; 2 µM): 14.5 ± 2
mass response (MM1S ATCC; 20 µM): 13.5 ± 2

N[C@@H](Cc1ccc(N(CCCl)CCCl)cc1)C(=O)O [Melphalan]
mass response (MM1S ATCC; 0.1 µM): 9.64 ± 4.4
mass response (MM1S ATCC; 1 µM): 17.5 ± 4.6
mass response (MM1S ATCC; 10 µM): 12.9 ± 2.5
mass response (MM1S ATCC; 50 µM): 29.6 ± 1.6

CO[C@@H]1[C@H](N(C)C(=O)c2ccccc2)C[C@H]2O[C@]1(C)n1c3ccccc3c3c4c(c5c6ccccc6n2c5c31)C(=O)NC4 [Midostaurin]
mass response (MOLM-13; 0.02 µM): 14.9 ± 0.91
mass response (MOLM-13; 0.2 µM): 38.7 ± 1.5
mass response (MOLM-13; 2 µM): 27.7 ± 0.98
mass response (MOLM-13; 20 µM): 30.2 ± 2.4

CN(C)C/C=C/C(=O)Nc1cc2c(Nc3ccc(F)c(Cl)c3)ncnc2cc1O[C@H]1CCOC1 [Afatinib]
mass response (PC9; 0.01 µM): 13.3 ± 4
mass response (PC9; 0.1 µM): 15.8 ± 1.3
mass response (PC9; 1 µM): 19.1 ± 1.6
mass response (PC9; 10 µM): 30.7 ± 4

C#Cc1cccc(Nc2ncnc3cc(OCCOC)c(OCCOC)cc23)c1 [Erlotinib]
mass response (PC9; 0.01 µM): 0.55 ± 1.1
mass response (PC9; 0.1 µM): 15.4 ± 1.5
mass response (PC9; 1 µM): 17.2 ± 0.41
mass response (PC9; 10 µM): 24.6 ± 1.6

CC(=O)[C@]1(O)Cc2c(O)c3c(c(O)c2[C@@H](O[C@H]2C[C@H](N)[C@H](O)[C@H](C)O2)C1)C(=O)c1ccccc1C3=O [Idarubicin]
mass response (MOLM-13; 0.001 µM): -0.127 ± 1.4
mass response (MOLM-13; 0.01 µM): 19.1 ± 2.9
mass response (MOLM-13; 0.1 µM): 33.1 ± 2
mass response (MOLM-13; 1 µM): 36.6 ± 2.1

N.N.[Cl][Pt][Cl] [Cisplatin]
mass response (MDA-MB-361; 10 µM): 3.9 ± 9.3
mass response (MDA-MB-361; 20 µM): 2.2 ± 2.3
mass response (MDA-MB-361; 50 µM): 4.96 ± 1.6
mass response (MDA-MB-361; 0.0001 M): 19.4 ± 2.7

COc1cc([C@@H]2c3cc4c(cc3[C@@H](O[C@@H]3O[C@@H]5CO[C@@H](C)O[C@H]5[C@H](O)[C@H]3O)[C@H]3COC(=O)[C@H]23)OCO4)cc(OC)c1O [Etoposide]
mass response (PC9; 0.01 µM): 0.492 ± 1.6
mass response (PC9; 0.1 µM): 0.732 ± 2.1
mass response (PC9; 1 µM): 12.3 ± 1
mass response (PC9; 10 µM): 36.2 ± 0.97

Cn1ncnc1[C@H]1c2n[nH]c(=O)c3cc(F)cc(c23)N[C@@H]1c1ccc(F)cc1 [Talazoparib]
mass response (MDA-MB-361; 0.2 µM): 8.83 ± 4.3
mass response (MDA-MB-361; 2 µM): 8.66 ± 2.9
mass response (MDA-MB-361; 20 µM): 11.8 ± 3.6
mass response (MDA-MB-361; 50 µM): 13.1 ± 6.4
